Measurements: patent publication US20200306333A1, “COMPOSITION FOR PREVENTING OR TREATING MUSCLE ATROPHY COMPRISING LYCII RADICIS CORTEX” (Industry-University Cooperation Foundation Hanyang …, priority 2019, published 2020)

Legend:
Format in all cases: cell-based, mouse
Details in all cases: dexamethasone 1 μM
atrogin-1/MAFbx = assay: Western blotting of atrogin-1/MAFbx in C2C12 myotubes
Description: (§1) Dexamethasone induces muscle atrophy by inhibiting muscle synthesis and inducing protein degradation. The effect of preventing and improving muscle atrophy of the lycii radicis cortex extract was investigated by inducing muscle atrophy by treating the differentiation-induced C2C12 cells of Example 2-1 with dexamethasone and then treating the muscle atrophy-induced cells with the lycii radicis cortex extract. Detailed experimental conditions are as follows.
(§2) (1) Control: The differentiated C2C12 cells were treated only with DMEM/high glucose supplemented with 1% penicillin for 48 hours.
(§3) (2) Negative control: The C2C12 cells were treated with DMEM/high glucose supplemented with 1% penicillin and 1 μM dexamethasone for 48 hours.
(§4) (3) Control+lycii radicis cortex extract: The cells were treated with 30 μg/mL of the lycii radicis cortex extract for 48 hours under the same condition as the control of (1).
(§5) (4) Negative control+lycii radicis cortex extract: The cells were treated with 30 μg/mL of the lycii radicis cortex extract for 48 hours under the same condition as the negative control of (2). […]

MuRF-1 = assay: Western blotting of MuRF-1 in C2C12 myotubes
Description: as §1, §2, §3, §4, §5

C2C12 myotubes = assay: Diameter (thickness) of C2C12 myotubes, dexamethasone-induced muscle atrophy
Experimental: C2C12 mouse myoblasts acquired from the Korean Collection for Type Cultures of the Korea Research Institute of Bioscience and Biotechnology were induced to divide for a total of 6 times (3 times×2 days). After the division was completed sufficiently, the C2C12 cells were seeded onto a 12-well plate and then divided for 2 days. As a division medium, HyClone™ DMEM/high glucose supplemented with 10% FBS (fetal bovine serum) and 1% penicillin was used.
When each well of the 12-well plate reached 90% confluency, the cells were treated with a differentiation medium (HyClone™ DMEM/high glucose supplemented with 2% HS (horse serum) and 1% penicillin). The differentiation medium was replaced every 2 days, and the treatment was performed for 6 days. Then, the differentiation-induced C2C12 myotubes were treated with HyClone™ supplemented with 1% penicillin for 24 hours and then subjected to the following experiment.
Dexamethasone induces muscle atrophy by inhibiting muscle synthesis and inducing protein degradation. […]
After treating the control groups and test groups for 48 hours in Example 2-2, the cells were imaged using the automated cell imaging system JuLi™ Stage and the thickness of the imaged cells was measured using the cell processing program Image J, with 50 cells per group.

## C[C@@H]1C[C@H]2[C@@H]3CCC4=CC(=O)C=C[C@]4(C)[C@@]3(F)[C@@H](O)C[C@]2(C)[C@@]1(O)C(=O)CO [dexamethasone]
atrogin-1/MAFbx
  increase of activity of atrogin-1/MAFbx as compared to the control group: 3.404 fold
atrogin-1/MAFbx; 48 hours, Control = 100
  Atrogin-1/MAFbx vs. GAPDH: 340.3945
MuRF-1
  increase of activity of MuRF-1 as compared to the control group: 3.513 fold
MuRF-1; 48 hours, Control = 100
  MuRF-1 vs. GAPDH: 351.2904
C2C12 myotubes; 48 hours, C2C12 myotubes
  Average thickness (μm) of 50 cells: 7.5933 μm
C2C12 myotubes; p<0.005
  decrease in thickness as compared to the control group: 30.54%
